Where two headings read alike, the source gives them in different places.
Legend:
Experiment in all cases: Test C pre/postemergence
Assay type in all cases: in vivo
[1] = test system: eastern black nightshade (Solanum ptycanthum); settings: Solanum, pre-emergence, Preemergence, read-out: Plant response rating, Nightshade
Summary of the method: (§1)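 We sprayed seeded pots preemergence and 2–18 cm seedlings postemergence with test chemicals in a non-phytotoxic solvent mixture including surfactant. Greenhouse plants were visually compared with untreated controls at 12 to 14 days and scored 0 (no effect) to 100 (complete control).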

[2] = test system: johnsongrass (Sorghum halepense); settings: Sorghum halepense; for pest or weed control at 62 g/ha: 62 g ai/ha; for pest or weed control at 125 g/ha: 125 g ai/ha; for pest or weed control at 250 g/ha: 250 g ai/ha; for pest or weed control at 500 g/ha: 500 g ai/ha
Summary of the method: as §1

kochia (Kochia scoparia) = settings: Bassia scoparia; for pest or weed control at 62 g/ha: 62 g ai/ha; for pest or weed control at 125 g/ha: 125 g ai/ha; for pest or weed control at 250 g/ha: 250 g ai/ha; for pest or weed control at 500 g/ha: 500 g ai/ha
Summary of the method: as §1

[3] = test system: morningglory (Ipomoea coccinea); settings: Ipomoea; for pest or weed control at 62 g/ha: 62 g ai/ha; for pest or weed control at 125 g/ha: 125 g ai/ha; for pest or weed control at 250 g/ha: 250 g ai/ha; for pest or weed control at 500 g/ha: 500 g ai/ha
Summary of the method: as §1

[4] = test system: pigweed (Amaranthus retroflexus); settings: Amaranthus retroflexus; for pest or weed control at 62 g/ha: 62 g ai/ha; for pest or weed control at 125 g/ha: 125 g ai/ha; for pest or weed control at 250 g/ha: 250 g ai/ha; for pest or weed control at 500 g/ha: 500 g ai/ha
Summary of the method: as §1

[5] = test system: woolly cupgrass (Eriochloa villosa); settings: Eriochloa villosa; for pest or weed control at 62 g/ha: 62 g ai/ha; for pest or weed control at 125 g/ha: 125 g ai/ha; for pest or weed control at 250 g/ha: 250 g ai/ha; for pest or weed control at 500 g/ha: 500 g ai/ha
Summary of the method: as §1

[6] = post-emergence, Postemergence, scale 0 to 100 (0 no effect, 100 complete control), read-out: Johnsongrass plant response rating
[7] = post-emergence, Postemergence, scale 0 to 100, read-out: Plant response rating, Johnsongrass
[8] = pre-emergence, Preemergence, scale 0 to 100, read-out: Plant response rating, Johnsongrass
[9] = post-emergence, Postemergence, scale 0 to 100 (0 no effect, 100 complete control), read-out: Kochia plant response rating
[10] = post-emergence, Postemergence, scale 0 to 100, read-out: Plant response rating, Kochia
[11] = pre-emergence, Preemergence, scale 0 to 100, read-out: Plant response rating, Kochia
[12] = post-emergence, Postemergence, scale 0 to 100 (0 no effect, 100 complete control), read-out: Morningglory plant response rating
[13] = post-emergence, Postemergence, scale 0 to 100, read-out: Plant response rating, Morningglory
[14] = pre-emergence, Preemergence, scale 0 to 100, read-out: Plant response rating, Morningglory
[15] = post-emergence, Postemergence, scale 0 to 100 (0 no effect, 100 complete control), read-out: Pigweed plant response rating
[16] = post-emergence, Postemergence, scale 0 to 100, read-out: Plant response rating, Pigweed
[17] = pre-emergence, Preemergence, scale 0 to 100, read-out: Plant response rating, Pigweed
[18] = post-emergence, Postemergence, scale 0 to 100 (0 no effect, 100 complete control), read-out: Cupgrass, Woolly plant response rating
[19] = post-emergence, Postemergence, scale 0 to 100, read-out: Plant response rating, Cupgrass, Woolly
[20] = pre-emergence, Preemergence, scale 0 to 100, read-out: Plant response rating, Cupgrass, Woolly

## CCOC(=O)c1nc(C2CC2)nc(N)c1Cl [Compound 4, ethyl 6-amino-5-chloro-2-cyclopropyl-4-pyrimidinecarboxylate]
[1]; 62 g ai/ha, scale 0 to 100, 0 no effect, 100 complete control
  pest or weed control at 62 g/ha: 100%
[1]; 125 g ai/ha, scale 0 to 100
  pest or weed control at 125 g/ha: 100%
[1]; 250 g ai/ha, scale 0 to 100
  pest or weed control at 250 g/ha: 100%
[1]; 500 g ai/ha, scale 0 to 100
  pest or weed control at 500 g/ha: 100%
[2]; [6]
  pest or weed control at 62 g/ha: 70%
  pest or weed control at 125 g/ha: 80%
[2]; [7]
  pest or weed control at 250 g/ha: 95%
  pest or weed control at 500 g/ha: 95%
[2]; pre-emergence, Preemergence, scale 0 to 100, 0 no effect, 100 complete control, read-out: Plant response rating, Johnsongrass
  pest or weed control at 62 g/ha: 50%
[2]; [8]
  pest or weed control at 125 g/ha: 70%
  pest or weed control at 250 g/ha: 90%
  pest or weed control at 500 g/ha: 95%
Kochia (Kochia scoparia); [9]
  pest or weed control at 62 g/ha: 100%
  pest or weed control at 125 g/ha: 100%
Kochia (Kochia scoparia); [10]
  pest or weed control at 250 g/ha: 100%
  pest or weed control at 500 g/ha: 100%
Kochia (Kochia scoparia); pre-emergence, Preemergence, scale 0 to 100, 0 no effect, 100 complete control, read-out: Plant response rating, Kochia
  pest or weed control at 62 g/ha: 95%
Kochia (Kochia scoparia); [11]
  pest or weed control at 125 g/ha: 100%
  pest or weed control at 250 g/ha: 100%
  pest or weed control at 500 g/ha: 100%
[3]; [12]
  pest or weed control at 62 g/ha: 15%
  pest or weed control at 125 g/ha: 100%
[3]; [13]
  pest or weed control at 250 g/ha: 100%
  pest or weed control at 500 g/ha: 100%
[3]; pre-emergence, Preemergence, scale 0 to 100, 0 no effect, 100 complete control, read-out: Plant response rating, Morningglory
  pest or weed control at 62 g/ha: 100%
[3]; [14]
  pest or weed control at 125 g/ha: 100%
  pest or weed control at 250 g/ha: 100%
  pest or weed control at 500 g/ha: 100%
[4]; [15]
  pest or weed control at 62 g/ha: 100%
  pest or weed control at 125 g/ha: 100%
[4]; [16]
  pest or weed control at 250 g/ha: 100%
  pest or weed control at 500 g/ha: 100%
[4]; pre-emergence, Preemergence, scale 0 to 100, 0 no effect, 100 complete control, read-out: Plant response rating, Pigweed
  pest or weed control at 62 g/ha: 95%
[4]; [17]
  pest or weed control at 125 g/ha: 100%
  pest or weed control at 250 g/ha: 100%
  pest or weed control at 500 g/ha: 100%
[5]; [18]
  pest or weed control at 62 g/ha: 60%
  pest or weed control at 125 g/ha: 70%
[5]; [19]
  pest or weed control at 250 g/ha: 85%
  pest or weed control at 500 g/ha: 95%
[5]; pre-emergence, Preemergence, scale 0 to 100, 0 no effect, 100 complete control, read-out: Plant response rating, Cupgrass, Woolly
  pest or weed control at 62 g/ha: 0%
[5]; [20]
  pest or weed control at 125 g/ha: 80%
  pest or weed control at 250 g/ha: 95%
  pest or weed control at 500 g/ha: 95%

Reference: patent publication US8802597B2, “Herbicidal pyrimidines” (E I du Pont de Nemours and Company, priority 2003, dated 2014)
